Assay [1] is filed under the species Bos taurus. Description: Inhibition of NADH oxidase activity in bovine heart sub-mitochondrial particles assessed as remaining enzyme activity at 1 uM by spectrophotometry relative to untreated control.
For assay [2], the species on record is Bos taurus. Description: Inhibition of NADH oxidase activity in bovine heart sub-mitochondrial particles assessed as remaining enzyme activity at 5 uM by spectrophotometry relative to untreated control.
The test system of assay [3] is CCRF-CEM. Nature of the assay: Cytoprotection in diethyl maleate-treated human CCRF-CEM cells 2.5 uM incubated for 17 hrs before diethyl maleate challenge by trypan blue dye exclusion method (reference value: 18 +/- 10%). It is filed as functional.
In assay [4] the test system is CCRF-CEM. Nature of the assay: Cytoprotection in diethyl maleate-treated human CCRF-CEM cells 0.5 uM incubated for 17 hrs before diethyl maleate challenge by trypan blue dye exclusion method (reference value: 18 +/- 10%). It is filed as functional.
Assay [5] has as its system CCRF-CEM. Nature of the assay: Cytoprotection in diethyl maleate-treated human CCRF-CEM cells 0.1 uM incubated for 17 hrs before diethyl maleate challenge by trypan blue dye exclusion method (reference value: 18 +/- 10%). It is filed as functional.
Assay [6] is filed under the species Homo sapiens. Nature of the assay: Preservation of mitochondrial membrane potential in diethyl maleate-treated human Friedreich's ataxia lymphocytes at 2.5 uM pre-incubated for 16 hrs before diethyl maleate challenge by FACS method (reference value: 25%). It is filed as functional. In general terms: Flow cytometry measures light scatter and fluorescence of single cells or particles in a stream.

For assay [7], the species on record is Homo sapiens. Nature of the assay: Preservation of mitochondrial membrane potential in diethyl maleate-treated human Friedreich's ataxia lymphocytes at 1 uM pre-incubated for 16 hrs before diethyl maleate challenge by FACS method (reference value: 25%). It is filed as functional.
Assay [8] is filed under the species Homo sapiens. Description: Preservation of mitochondrial membrane potential in diethyl maleate-treated human Friedreich's ataxia lymphocytes at 0.5 uM pre-incubated for 16 hrs before diethyl maleate challenge by FACS method (reference value: 25%). It is filed as functional.
The species named for assay [9] is Homo sapiens. Description: Inhibition of lipid peroxidation in diethyl maleate-treated human Friedreich's ataxia lymphocytes at 5 uM pre-incubated for 16 hrs before diethyl maleate challenge by FACS method relative to untreated control. It is filed as functional.
The species entered for assay [10] is Homo sapiens. Nature of the assay: Inhibition of lipid peroxidation in diethyl maleate-treated human Friedreich's ataxia lymphocytes at 2.5 uM pre-incubated for 16 hrs before diethyl maleate challenge by FACS method relative to untreated control. It is filed as functional.
The species named for assay [11] is Bos taurus. Nature of the assay: Inhibition of NADH oxidase activity in bovine heart sub-mitochondrial particles assessed as remaining enzyme activity at 10 uM by spectrophotometry relative to untreated control.
Assay [12] has as its system CCRF-CEM. Nature of the assay: Inhibition of diethyl maleate-induced ROS production in human CCRF-CEM cells at 0.25 to 2.5 uM incubated for 16 hrs by DCFH-DA dye staining based FACS method. It is filed as functional, cell-based.
Assay [13] is described as follows: Cytoprotection in diethyl maleate-treated human Friedreich's ataxia lymphocytes incubated for 17 hrs before diethyl maleate challenge by trypan blue dye exclusion method. It is filed as functional.

Molecules are shown by their SMILES. pEC50: −log10 of the molar value. The source made the active and inactive calls. The rule behind the calls is not given here.

A word on the inhibition: it is the share of the control response that was lost under treatment. Usually pEC50 stands for −log10 of the EC50, conventionally taken in molar units.

As to `Cc1cc(-n2c(C)ccc2C)nc(CCCCCCCCCCO)c1O`, the Activity in the assay listed under Bos taurus [1] came out at 71%; in the assay filed under Bos taurus [2], 49%; with CCRF-CEM [3], 26%; in the assay on CCRF-CEM [4], 23%; with CCRF-CEM [5] it was 18%; in the assay filed under Homo sapiens [6], 52%. Besides, the Activity was 44% in the assay filed under Homo sapiens [7], 35% in the assay listed under Homo sapiens [8] and 43% in the assay filed under Bos taurus [11]. In addition, the inhibition in the assay listed under Homo sapiens [9] was found to be 39%; in the assay filed under Homo sapiens [10] it was 20%.
Consider `Cc1cc(N)nc(CCCCCCCCCCO)c1O`, for which the Activity in the assay listed under Bos taurus [1] stood at 74%; in the assay filed under Bos taurus [2] it was 52%; with CCRF-CEM [3] it was 78%; in the assay with CCRF-CEM [4], 38%; in the assay with CCRF-CEM [5], 28%; in the assay filed under Homo sapiens [6] it was 65%. The Activity in the assay filed under Homo sapiens [7] came to 50%; in the assay listed under Homo sapiens [8], 42%; in the assay filed under Bos taurus [11], 48%. Also, the inhibition result in the assay on CCRF-CEM [12] was “Active”. In addition, the inhibition turned out to be 74% in the assay listed under Homo sapiens [9] and 62% in the assay listed under Homo sapiens [10].
With `Cc1cc(N2C(C)CCC2C)nc(CCCCCCCCCCO)c1O` (stereo unspecified), the Activity was determined as 78% in the assay filed under Bos taurus [1]; 59% in the assay filed under Bos taurus [2]; 93% in the assay with CCRF-CEM [3]; 90% with CCRF-CEM [4]; 88% with CCRF-CEM [5]; 83% in the assay listed under Homo sapiens [6]. Further, the figures for the Activity in the assay filed under Homo sapiens [7], in the assay listed under Homo sapiens [8] and in the assay filed under Bos taurus [11] were 72%, 66% and 27%, respectively. In [13], the pEC50 was 6.82. Also, the inhibition entry with CCRF-CEM [12] is “Dose-dependent effect”; in the assay listed under Homo sapiens [9], 97%; in the assay filed under Homo sapiens [10], 90%.
`Cc1c(N(C)C)nc(CCCCCCCCCCO)c(O)c1C`: the Activity in the assay filed under Bos taurus [1] turned out to be 27%; in the assay filed under Bos taurus [2], 9%; with CCRF-CEM [3], 92%; in the assay with CCRF-CEM [4] it was 47%; in the assay with CCRF-CEM [5], 42%; in the assay listed under Homo sapiens [6] it was 70%. The figures for the Activity in the assay filed under Homo sapiens [7], in the assay listed under Homo sapiens [8] and in the assay filed under Bos taurus [11] were 75%, 60% and 6%, respectively. Besides, in [13], the pEC50 is 6.25. In addition, in the assay with CCRF-CEM [12], the inhibition entry was “Active”. In addition, the values for the inhibition in the assay filed under Homo sapiens [9] and in the assay listed under Homo sapiens [10] were 97% and 87%, respectively.
For the compound `Cc1cc(N(C)C)nc(CCCCCCCCCCO)c1O`, the Activity in the assay listed under Bos taurus [1] is 85%; in the assay filed under Bos taurus [2], 42%; in the assay on CCRF-CEM [3], 94%; with CCRF-CEM [4], 59%; with CCRF-CEM [5], 41%; in the assay filed under Homo sapiens [6] it was 73%. In addition, the Activity came out at 54% in the assay listed under Homo sapiens [7], 45% in the assay filed under Homo sapiens [8] and 25% in the assay listed under Bos taurus [11]. Besides, the pEC50 in [13] was 6.08. Moreover, the inhibition entry in the assay with CCRF-CEM [12] is “Active”. Further, the inhibition in the assay filed under Homo sapiens [9] was 82%; in the assay filed under Homo sapiens [10] it was 71%.
On to `COC1=C(OC)C(=O)C(CCCCCCCCCCO)=C(C)C1=O` [IDEBENONE], for which the Activity turned out to be 65% in the assay filed under Bos taurus [1]; 53% in the assay listed under Bos taurus [2]; 88% in the assay with CCRF-CEM [3]; 49% in the assay on CCRF-CEM [4]; 34% in the assay on CCRF-CEM [5]; 75% in the assay filed under Homo sapiens [6]. The values for the Activity in the assay listed under Homo sapiens [7], in the assay filed under Homo sapiens [8] and in the assay listed under Bos taurus [11] were 57%, 47% and 15%, respectively. This compound also showed a negative logarithm of the EC50 (pEC50) in [13] of 6.14. For the same compound, in the assay with CCRF-CEM [12], the inhibition entry was “Active”. The results for the inhibition in the assay filed under Homo sapiens [9] and in the assay listed under Homo sapiens [10] were 77% and 68%, respectively.
Turning to `Cc1nc(N(C)C)nc(CCCCCCCCCCO)c1O`, the Activity in the assay filed under Bos taurus [1] amounted to 49%; in the assay listed under Bos taurus [2] it was 26%; in the assay with CCRF-CEM [3], 94%; with CCRF-CEM [4] it was 93%; in the assay on CCRF-CEM [5] it was 76%; in the assay listed under Homo sapiens [6], 86%. Further, the Activity in the assay filed under Homo sapiens [7] stood at 75%; in the assay listed under Homo sapiens [8] it was 68%; in the assay listed under Bos taurus [11], 22%. This compound had a pEC50 in [13] of 6.42. In the assay on CCRF-CEM [12], the inhibition entry was “Active”. For the same compound, the figures for the inhibition in the assay filed under Homo sapiens [9] and in the assay listed under Homo sapiens [10] were 91% and 83%, respectively.
Take `Cc1cc(N(C)C)nc(C)c1O`: the Activity in the assay filed under Homo sapiens [8] was 29%. The inhibition in the assay filed under Homo sapiens [9] stood at 3.9%; in the assay listed under Homo sapiens [10], 3.5%.

Values taken from ChEMBL document CHEMBL2169807, “Analysis of the structural and mechanistic factors in antioxidants that preserve mitochondrial function and confer cytoprotection” (Bioorg Med Chem, 2012).
